The text below walks through data of patent US9067871B2, “Aminotetraline derivatives, pharmaceutical compositions containing them, and their use in therapy” (ABBVIE DEUTSCHLAND GMBH & CO KG, priority 2009, dated 2015).

One may read the pIC50 as −log10 of the IC50, conventionally taken in molar units.

pIC50, pKi: −log10 of the molar value. Counter-ions that a name gives are not always drawn. Like-named read-outs stand apart in the source and are kept apart here.

In one test the target is human GlyT1c transporter (Homo sapiens (Human), UniProt P48067). Description: Radioligand binding assay using recombinant CHO cell membranes expressing human GlyT1. To be noted: read-out: radioligand binding Kiapp. From the text: 2. Radioligand binding assays using recombinant CHO cell membranes expressing human GlyT1: […]
human GlyT1c transporter, sequence (P48067 whole entry): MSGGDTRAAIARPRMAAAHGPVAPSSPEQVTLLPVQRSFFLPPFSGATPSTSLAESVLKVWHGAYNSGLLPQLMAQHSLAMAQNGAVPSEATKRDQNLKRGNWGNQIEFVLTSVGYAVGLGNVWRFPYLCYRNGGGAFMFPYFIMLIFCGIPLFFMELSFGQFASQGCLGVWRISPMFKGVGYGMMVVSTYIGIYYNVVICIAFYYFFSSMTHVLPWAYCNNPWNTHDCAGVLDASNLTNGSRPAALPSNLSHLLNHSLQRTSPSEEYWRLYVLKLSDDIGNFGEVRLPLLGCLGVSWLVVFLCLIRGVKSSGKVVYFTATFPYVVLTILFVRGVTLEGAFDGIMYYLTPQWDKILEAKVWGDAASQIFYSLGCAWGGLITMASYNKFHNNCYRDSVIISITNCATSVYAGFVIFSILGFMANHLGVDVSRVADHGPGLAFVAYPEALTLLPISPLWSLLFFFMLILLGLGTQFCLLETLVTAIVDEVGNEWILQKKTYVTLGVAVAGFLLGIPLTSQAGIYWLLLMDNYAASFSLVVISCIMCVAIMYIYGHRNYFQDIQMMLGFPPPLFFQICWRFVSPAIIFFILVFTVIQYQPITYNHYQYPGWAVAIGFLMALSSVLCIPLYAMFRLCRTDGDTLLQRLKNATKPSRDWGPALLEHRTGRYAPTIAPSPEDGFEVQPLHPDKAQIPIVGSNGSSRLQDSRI
A further test concerns the target human GlyT1c (Homo sapiens (Human), UniProt P48067). Description: [3H]-Glycine uptake into recombinant CHO cells expressing human GlyT1. It is filed as cell-based. The protocol: 1. [^3H]-Glycine uptake into recombinant CHO cells expressing human GlyT1: Human GlyT1c expressing recombinant hGlyT1c—5_CHO cells were plated at 20,000 cells per well in 96 well Cytostar-T scintillation microplates (Amersham Biosciences) and cultured to sub-confluency for 24 h. […] 80 μl HBSS buffer were added, followed by 10 μl inhibitor or vehicle (10% DMSO) and 10 μl [^3H]-glycine (TRK71, Amersham Biosciences) to a final concentration of 200 nM for initiation of glycine uptake. The plates were placed in a Wallac Microbeta (PerkinElmer) and continuously counted by solid phase scintillation spectrometry during up to 3 hours. Nonspecific uptake was determined in the presence of 10 μM Org24598.

The mark [1] stands for this setting: human GlyT1c-expressing CHO cell membranes.
Where [2] appears, read: hGlyT1c_5_CHO cells, 200 nM [3H]-glycine.

human GlyT1c, sequence (P48067 whole entry): as above

As for `CCCS(=O)(=O)N(C)Cc1ccc2c(c1)[C@H](Cc1ccccc1)[C@H](N)CC2` (relative stereo) [Example 45, N-{[cis-7-amino-8-benzyl-5,6,7,8-tetrahydronaphthalen-2-yl]methyl}-N-methylpropane-1-sulfonamide hydrochloride], the pKi at human GlyT1c transporter (setting [1]) is at least 7.00. Further, the pIC50 at human GlyT1c (setting [2]) is at least 7.00.

With `CCOC(=O)NC1CCc2ccc(OCCNC(=O)OC(C)(C)C)cc2C1Cc1ccc(Cl)c(Cl)c1` (stereo not shown) [Example 1, [7-(2-tert-Butoxycarbonylamino-ethoxy)-1-(3,4-dichloro-benzyl)-1,2,3,4-tetrahydro-naphthalen-2-yl]-carbamic acid ethyl ester], the pKi at human GlyT1c transporter (setting [1]) was at least 5.00. Moreover, the pIC50 at human GlyT1c (setting [2]) is at least 3.00.

Regarding `CCOC(=O)NC1CCc2ccc(OCCNS(=O)(=O)c3cn(C)cn3)cc2C1Cc1ccc(Cl)c(Cl)c1` (stereo not shown) [Example 2, Ethyl 1-(3,4-dichlorobenzyl)-7-(2-(1-methyl-1H-imidazole-4-sulfonamido)ethoxy)-1,2,3,4-tetrahydronaphthalen-2-ylcarbamate], the pKi on human GlyT1c transporter (setting [1]) is at least 7.00. Also, the pIC50 at human GlyT1c (setting [2]) is at least 6.00.

For the compound `Cn1cnc(S(=O)(=O)NCCOc2ccc3c(c2)C(Cc2ccc(Cl)c(Cl)c2)C(N)CC3)c1` (stereo not shown) [Example 3, N-(2-(7-Amino-8-(3,4-dichlorobenzyl)-5,6,7,8-tetrahydronaphthalen-2-yloxy)ethyl)-1-methyl-1H-imidazole-4-sulfonamide hydrochloride], at human GlyT1c transporter, the pKi was at least 8.00. Also, the pIC50 at human GlyT1c was at least 8.00.

In the case of `Cn1cc(S(=O)(=O)NCCOc2ccc3c(c2)C(Cc2ccc(Cl)c(Cl)c2)C(N)CC3)cn1` (stereo not shown) [Example 4, 1-Methyl-1H-pyrazole-4-sulfonic acid {2-[7-amino-8-(3,4-dichloro-benzyl)-5,6,7,8-tetrahydro-naphthalen-2-yloxy]-ethyl}-amide hydrochloride], at human GlyT1c transporter (setting [1]), the pKi is at least 8.00. In addition, the pIC50 on human GlyT1c (setting [2]) was at least 8.00.

For `NC1CCc2ccc(OCCNS(=O)(=O)c3cccnc3)cc2C1Cc1ccc(Cl)c(Cl)c1` (stereo not shown) [Example 5, Pyridine-3-sulfonic acid {2-[7-amino-8-(3,4-dichloro-benzyl)-5,6,7,8-tetrahydro-naphthalen-2-yloxy]-ethyl}-amide hydrochloride], at human GlyT1c transporter (setting [1]), the pKi was at least 6.00. The pIC50 on human GlyT1c (setting [2]) is at least 6.00.

Take `CCCS(=O)(=O)NCCOc1ccc2c(c1)C(Cc1ccc(Cl)c(Cl)c1)C(N(C)C)CC2` (stereo not shown) [Example 6]: at human GlyT1c transporter (setting [1]), the pKi was at least 7.00. Also, the pIC50 at human GlyT1c (setting [2]) was at least 6.00.

For `CCCS(=O)(=O)NCCOc1ccc2c(c1)C(Cc1ccc(Cl)c(Cl)c1)C(NC(=O)OCC)CC2` (stereo not shown) [Example 7], the pKi on human GlyT1c transporter (setting [1]) is at least 5.00. On human GlyT1c (setting [2]), the pIC50 is at least 5.00.

On to `CCCS(=O)(=O)NCCOc1ccc2c(c1)C(Cc1ccc(Cl)c(Cl)c1)C(N)CC2` (stereo not shown) [Example 8, Propane-1-sulfonic acid {2-[7-amino-8-(3,4-dichloro-benzyl)-5,6,7,8-tetrahydronaphthalen-2-yloxy]-ethyl}-amide hydrochloride], for which, on human GlyT1c transporter, the pKi is at least 7.00. Moreover, at human GlyT1c, the pIC50 is at least 7.00.

As for `CCOC(=O)NC1CCc2ccc(OCCNS(=O)(=O)c3cnn(C)c3)cc2C1Cc1ccc(Cl)c(Cl)c1` (stereo not shown) [Example 9, {1-(3,4-Dichloro-benzyl)-7-[2-(1-methyl-1H-pyrazole-4-sulfonylamino)-ethoxy]-1,2,3,4-tetrahydro-naphthalen-2-yl}-carbamic acid ethyl ester], the pKi at human GlyT1c transporter (setting [1]) was at least 6.00. Further, the pIC50 at human GlyT1c (setting [2]) is at least 6.00.

For `CCOC(=O)NC1CCc2ccc(OCCNS(=O)(=O)c3cccnc3)cc2C1Cc1ccc(Cl)c(Cl)c1` (stereo not shown) [Example 10, {1-(3,4-Dichloro-benzyl)-7-[2-(pyridine-3-sulfonylamino)-ethoxy]-1,2,3,4-tetrahydronaphthalen-2-yl}-carbamic acid ethyl ester], the pKi on human GlyT1c transporter (setting [1]) was at least 5.00. Moreover, the pIC50 at human GlyT1c (setting [2]) is at least 4.00.

Turning to `CCCS(=O)(=O)N(C)CCOc1ccc2c(c1)C(Cc1ccc(Cl)c(Cl)c1)C(N)CC2` (stereo not shown) [Example 11, N-(2-(7-Amino-8-(3,4-dichlorobenzyl)-5,6,7,8-tetrahydronaphthalen-2-yloxy)ethyl)-N-methylpropane-1-sulfonamide hydrochloride], at human GlyT1c transporter (setting [1]), the pKi is at least 7.00. Further, the pIC50 at human GlyT1c (setting [2]) was at least 6.00.

For `CCOC(=O)NC1CCc2ccc(OCCNS(C)(=O)=O)cc2C1Cc1ccc(Cl)c(Cl)c1` (stereo not shown) [Example 12, [1-(3,4-Dichloro-benzyl)-7-(2-methanesulfonylamino-ethoxy)-1,2,3,4-tetrahydronaphthalen-2-yl]-carbamic acid ethyl ester], the pKi at human GlyT1c transporter (setting [1]) was at most 5.00. In addition, the pIC50 at human GlyT1c (setting [2]) was at least 4.00.

Regarding `CCOC(=O)NC1CCc2ccc(OCCNS(=O)(=O)c3ccccc3)cc2C1Cc1ccc(Cl)c(Cl)c1` (stereo not shown) [Example 13, [7-(2-Benzenesulfonylamino-ethoxy)-1-(3,4-dichloro-benzyl)-1,2,3,4-tetrahydronaphthalen-2-yl]-carbamic acid ethyl ester], the pKi at human GlyT1c transporter (setting [1]) was at least 4.00. In addition, the pIC50 on human GlyT1c (setting [2]) was at least 3.00.

For `CCOC(=O)NC1CCc2ccc(OCCNS(=O)(=O)c3cccs3)cc2C1Cc1ccc(Cl)c(Cl)c1` (stereo not shown) [Example 14, {1-(3,4-Dichloro-benzyl)-7-[2-(thiophene-2-sulfonylamino)-ethoxy]-1,2,3,4-tetrahydronaphthalen-2-yl}-carbamic acid ethyl ester], the pKi at human GlyT1c transporter (setting [1]) is at least 4.00. Besides, on human GlyT1c (setting [2]), the pIC50 is at least 3.00.

Consider `CS(=O)(=O)NCCOc1ccc2c(c1)C(Cc1ccc(Cl)c(Cl)c1)C(N)CC2` (stereo not shown) [Example 15, N-{2-[7-Amino-8-(3,4-dichloro-benzyl)-5,6,7,8-tetrahydro-naphthalen-2-yloxy]-ethyl}-methanesulfonamide hydrochloride], for which, on human GlyT1c transporter, the pKi is at least 6.00. On human GlyT1c, the negative-log IC50 (pIC50) is at least 6.00.

Take `NC1CCc2ccc(OCCNS(=O)(=O)c3ccccc3)cc2C1Cc1ccc(Cl)c(Cl)c1` (stereo not shown) [Example 16, N-{2-[7-Amino-8-(3,4-dichloro-benzyl)-5,6,7,8-tetrahydro-naphthalen-2-yloxy]-ethyl}-benzenesulfonamide hydrochloride]: the pKi at human GlyT1c transporter was at least 5.00. Moreover, on human GlyT1c, the negative logarithm of the IC50 (pIC50) is at least 5.00.

On to `NC1CCc2ccc(OCCNS(=O)(=O)c3cccs3)cc2C1Cc1ccc(Cl)c(Cl)c1` (stereo not shown) [Example 17, Thiophene-2-sulfonic acid {2-[7-amino-8-(3,4-dichloro-benzyl)-5,6,7,8-tetrahydro-naphthalen-2-yloxy]-ethyl}-amide hydrochloride], for which the pKi at human GlyT1c transporter (setting [1]) is at least 6.00. Also, on human GlyT1c (setting [2]), the pIC50 is at least 5.00.

`Cn1cnc(S(=O)(=O)NCCOc2ccc3c(c2)C(Cc2ccc(Cl)c(Cl)c2)C(NC(=O)C(F)(F)F)CC3)c1` (stereo not shown) [Example 18, N-{1-(3,4-Dichloro-benzyl)-7-[2-(1-methyl-1H-imidazole-4-sulfonylamino)-ethoxy]-1,2,3,4-tetrahydro-naphthalen-2-yl}-2,2,2-trifluoro-acetamide]: the pKi on human GlyT1c transporter (setting [1]) was at least 8.00. For the same compound, on human GlyT1c (setting [2]), the pIC50 was at least 7.00.

As to `NC1CCc2ccc(OCCNS(=O)(=O)C3CCNC3)cc2C1Cc1ccc(Cl)c(Cl)c1` (stereo not shown) [Example 19, Pyrrolidine-3-sulfonic acid {2-[7-amino-8-(3,4-dichloro-benzyl)-5,6,7,8-tetrahydronaphthalen-2-yloxy]-ethyl}-amide hydrochloride], the pKi on human GlyT1c transporter (setting [1]) is at least 5.00. Also, the pIC50 on human GlyT1c (setting [2]) is at least 4.00.

Turning to `Cn1cnc(S(=O)(=O)NCCOc2ccc3c(c2)C(Cc2ccc(Cl)c(Cl)c2)C(NC=O)CC3)c1` (stereo not shown) [Example 20, 1-Methyl-1H-imidazole-4-sulfonic acid {2-[8-(3,4-dichloro-benzyl)-7-formylamino-5,6,7,8-tetrahydro-naphthalen-2-yloxy]-ethyl}-amide], the pKi on human GlyT1c transporter (setting [1]) was at least 8.00. For the same compound, the pIC50 at human GlyT1c (setting [2]) was at least 7.00.

Turning to `CCOC(=O)NC1CCc2ccc(OCCNS(=O)(=O)c3cc(C)cs3)cc2C1Cc1ccc(Cl)c(Cl)c1` (stereo not shown) [Example 21], the pKi on human GlyT1c transporter (setting [1]) was at least 4.00. In addition, the pIC50 on human GlyT1c (setting [2]) was at least 3.00.

Turning to `Cn1cnc(S(=O)(=O)NCCOc2ccc3c(c2)C(Cc2cccc(Cl)c2)C(N2CCC2)CC3)c1` (stereo not shown) [Example 321, 1-Methyl-1H-imidazole-4-sulfonic acid {2-[7-azetidin-1-yl-8-(3-chloro-benzyl)-5,6,7,8-tetrahydro-naphthalen-2-yloxy]-ethyl}-amide hydrochloride], on human GlyT1c transporter (setting [1]), the pKi was at least 8.00.

On to `Cn1cc(S(=O)(=O)NCCOc2ccc3c(c2)C(Cc2cccc(Cl)c2)C(N2CCC2)CC3)cn1` (stereo not shown) [Example 322, 1-Methyl-1H-pyrazole-4-sulfonic acid {2-[7-azetidin-1-yl-8-(3-chloro-benzyl)-5,6,7,8-tetrahydro-naphthalen-2-yloxy]-ethyl}-amide hydrochloride], for which the pKi on human GlyT1c transporter (setting [1]) was at least 8.00.

Consider `CCCS(=O)(=O)NCCOc1ccc2c(c1)C(Cc1cccc(Cl)c1)C(N1CCCC1)CC2` (stereo not shown) [Example 323, Propane-1-sulfonic acid {2-[8-(3-chloro-benzyl)-7-pyrrolidin-1-yl-5,6,7,8-tetrahydronaphthalen-2-yloxy]-ethyl}-amide hydrochloride], for which, at human GlyT1c transporter (setting [1]), the pKi was at least 6.00.

On to `Cn1cc(S(=O)(=O)NCCOc2ccc3c(c2)C(Cc2ccccc2)C(N2CCC2)CC3)cn1` (stereo not shown) [Example 324, 1-Methyl-1H-pyrazole-4-sulfonic acid [2-(7-azetidin-1-yl-8-benzyl-5,6,7,8-tetrahydronaphthalen-2-yloxy)-ethyl]amide hydrochloride], for which the pKi on human GlyT1c transporter (setting [1]) is at least 8.00.

With `CCCS(=O)(=O)CCc1ccc2c(c1)C(Cc1cccc(Cl)c1)C(N)CC2` (stereo not shown) [Example 326, 1-(3-Chloro-benzyl)-7-[2-(propane-1-sulfonyl)-ethyl]-1,2,3,4-tetrahydro-naphthalen-2-ylamine hydrochloride], the pKi on human GlyT1c transporter (setting [1]) is at least 6.00.
